Reference: US9546152B2 (MERCK SHARP & DOHME CORP., priority 2012, dated 2017)

How the values were obtained:
human orexin-2 receptor [1] = target: T1, human orexin-2 receptor (Homo sapiens (Human), UniProt O43614); test: FLIPR Ca2+ Flux Assay, orexin-2 receptor; type: cell-based; details: CHO cells expressing the human orexin-2 receptor; agonist 70 pM Ala-6,12 human orexin-A; read-out: hOX2R FLIPR IC50
Method: (§1) In a typical experiment the OX1 and OX2 receptor antagonistic activity of the compounds of the present invention was determined in accordance with the following experimental method. For intracellular calcium measurements, Chinese hamster ovary (CHO) cells expressing the rat orexin-1 receptor or the human orexin-2 receptor, are grown in Iscove's modified DMEM containing 2 mM L-glutamine, […], 1% hypoxanthine-thymidine supplement, 100 U/ml penicillin, 100 μg/ml streptomycin and 10% heat-inactivated fetal calf serum (FCS). The cells are seeded at 20,000 cells/well into Becton-Dickinson black 384-well clear bottom sterile plates coated with poly-D-lysine. All reagents were from GIBCO-Invitrogen Corp. The seeded plates are incubated overnight at 37° C. and 5% CO2. Ala-6,12 human orexin-A as the agonist is prepared as a 1 mM stock solution in 1% bovine serum albumin (BSA) and diluted in assay buffer (HBSS containing 20 mM HEPES, 0.1% BSA and 2.5 mM probenecid, pH7.4) for use in the assay at a final concentration of 70 pM. Test compounds are prepared as 10 mM stock solution in DMSO, then diluted in 384-well plates, first in DMSO, then assay buffer. On the day of the assay, cells are washed 3 times with 100 μl assay buffer and then incubated for 60 min (37° C., 5% CO2) in 60 μl assay buffer containing 1 μM Fluo-4AM ester, 0.02% pluronic acid, and 1% BSA. The dye loading solution is then aspirated and cells are washed 3 times with 100 μl assay buffer. 30 μl of that same buffer is left in each well. Within the Fluorescent Imaging Plate Reader (FLIPR, Molecular Devices), test compounds are added to the plate in a volume of 25 μl, incubated for 5 min and finally 25 μl of agonist is added. Fluorescence is measured for each well at 1 second intervals for 5 minutes and the height of each fluorescence peak is compared to the height of the fluorescence peak induced by 70 pM Ala-6,12 orexin-A with buffer in place of antagonist. […] Alternatively, compound potency can be assessed by a radioligand binding assay (described in Bergman et. al. Bioorg. Med. Chem. Lett. 2008, 18, 1425-1430) in which the inhibition constant (Ki) is determined in membranes prepared from CHO cells expressing either the OX1 or OX2 receptor. The intrinsic orexin receptor antagonist activity of a compound which may be used in the present invention may be determined by these assays.

rat orexin-1 receptor = rat orexin-1 receptor (Rattus norvegicus (Rat), UniProt P56718); test: FLIPR Ca2+ Flux Assay, orexin-1 receptor; type: cell-based; details: CHO cells expressing the rat orexin-1 receptor; agonist 70 pM Ala-6,12 human orexin-A; read-out: hOX1R FLIPR IC50
rat orexin-1 receptor, sequence (P56718 whole entry): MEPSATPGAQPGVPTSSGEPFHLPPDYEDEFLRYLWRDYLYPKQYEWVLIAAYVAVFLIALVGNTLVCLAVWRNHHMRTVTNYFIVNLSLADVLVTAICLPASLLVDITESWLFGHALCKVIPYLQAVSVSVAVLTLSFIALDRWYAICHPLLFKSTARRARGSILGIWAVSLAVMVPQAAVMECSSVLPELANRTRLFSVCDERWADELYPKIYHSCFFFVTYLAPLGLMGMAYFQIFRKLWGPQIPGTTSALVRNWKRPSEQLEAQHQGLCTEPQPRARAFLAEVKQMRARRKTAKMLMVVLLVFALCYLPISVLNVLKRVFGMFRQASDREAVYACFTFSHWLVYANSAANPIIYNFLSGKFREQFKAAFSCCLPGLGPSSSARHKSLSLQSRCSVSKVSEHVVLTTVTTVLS
Method: as §1

human orexin-2 receptor [2] = target: T1, human orexin-2 receptor; test: radioligand binding assay, orexin-2 receptor; details: membranes prepared from CHO cells expressing the OX2 receptor; read-out: hOX2R BIND hKi
Method: as §1

T1 sequence (O43614 whole entry): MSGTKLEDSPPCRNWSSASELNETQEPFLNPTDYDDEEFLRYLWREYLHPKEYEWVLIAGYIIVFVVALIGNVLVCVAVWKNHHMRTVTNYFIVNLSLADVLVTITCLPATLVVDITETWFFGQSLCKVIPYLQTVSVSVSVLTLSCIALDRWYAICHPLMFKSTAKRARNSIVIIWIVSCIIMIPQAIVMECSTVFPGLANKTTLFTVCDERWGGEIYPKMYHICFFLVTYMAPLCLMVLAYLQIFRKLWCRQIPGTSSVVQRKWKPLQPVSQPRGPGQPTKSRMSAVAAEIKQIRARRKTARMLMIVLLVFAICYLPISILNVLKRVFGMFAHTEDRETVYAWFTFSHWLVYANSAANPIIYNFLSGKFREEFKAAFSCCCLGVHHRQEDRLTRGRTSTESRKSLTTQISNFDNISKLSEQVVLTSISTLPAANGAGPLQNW

| SMILES | IC50 (human orexin-2 receptor [1]) | IC50 (rat orexin-1 receptor) | Ki (human orexin-2 receptor [2]) |
| --- | --- | --- | --- |
| Cc1c(C#N)ccnc1O[C@@H]1CC[C@@H](C)N(C(=O)c2ccccc2-n2nccn2)C1 [Example 1, 3-Methyl-2-{[(3R,6R)-6-methyl-1-{[2-(2H-1,2,3-triazol-2-yl)phenyl]carbonyl}piperidin-3-yl]oxy}pyridine-4-carbonitrile] | 8 nM | 996 nM | 0.4 nM |
| COc1ccc(C(=O)N2C[C@H](Oc3nccc(C#N)c3C)CC[C@H]2C)c(-n2nccn2)n1 [Example 2, 2-{[(3R,6R)-1-{[6-Methoxy-2-(2H-1,2,3-triazol-2-yl)pyridin-3-yl]carbonyl}-6-methylpiperidin-3-yl]oxy}-3-methylpyridine-4-carbonitrile] | 21 nM | 5930 nM | 3 nM |
| Cc1c(C#N)ccnc1O[C@@H]1CC[C@@H](C)N(C(=O)c2cc(Cl)ccc2-n2nccn2)C1 [Example 3, 2-{[(3R,6R)-1-{[5-chloro-2-(2H-1,2,3-triazol-2-yl)phenyl]carbonyl}-6-methylpiperidin-3-yl]oxy}-3-methylpyridine-4-carbonitrile] | 128 nM | 4730 nM | 11.7 nM |
| Cc1ccc(-n2nccn2)c(C(=O)N2C[C@H](Oc3nccc(C#N)c3C)CC[C@H]2C)c1 [Example 6, 3-methyl-2-{[(3R,6R)-6-methyl-1-{[5-methyl-2-(2H-1,2,3-triazol-2-yl)phenyl]carbonyl}piperidin-3-yl]oxy}pyridine-4-carbonitrile] | 7 nM | 292 nM | 0.6 nM |
| Cc1ccc(C(=O)N2C[C@H](Oc3nccc(C#N)c3C)CC[C@H]2C)c(-n2nccn2)c1 [Example 8, 3-methyl-2-{[(3R,6R)-6-methyl-1-{[4-methyl-2-(2H-1,2,3-triazol-2-yl)phenyl]carbonyl}piperidin-3-yl]oxy}pyridine-4-carbonitrile] | 11 nM | 861 nM | 0.6 nM |
| Cc1c(C#N)ccnc1O[C@@H]1CC[C@@H](C)N(C(=O)c2ccc(F)cc2-n2nccn2)C1 [Example 9, 2-{[(3R,6R)-1-{[4-fluoro-2-(2H-1,2,3-triazol-2-yl)phenyl]carbonyl}-6-methylpiperidin-3-yl]oxy}-3-methylpyridine-4-carbonitrile] | 12 nM | 1080 nM | 0.5 nM |
| Cc1c(C#N)ccnc1O[C@@H]1CC[C@@H](C)N(C(=O)c2cnccc2-n2nccn2)C1 [Example 10, 3-methyl-2-{[(3R,6R)-6-methyl-1-{[4-(2H-1,2,3-triazol-2-yl)pyridin-3-yl]carbonyl}piperidin-3-yl]oxy}pyridine-4-carbonitrile] | 55 nM | 7070 nM | 8.1 nM |
| Cc1c(C#N)ccnc1O[C@@H]1CC[C@@H](C)N(C(=O)c2c(F)cccc2-n2nccn2)C1 [Example 11, 2-{[(3R,6R)-1-{[2-fluoro-6-(2H-1,2,3-triazol-2-yl)phenyl]carbonyl}-6-methylpiperidin-3-yl]oxy}-3-methylpyridine-4-carbonitrile] | 10 nM | 611 nM | 0.3 nM |
| Cc1cccc(C(=O)N2C[C@H](Oc3nccc(C#N)c3C)CC[C@H]2C)c1-n1nccn1 [Example 13, 3-methyl-2-{[(3R,6R)-6-methyl-1-{[3-methyl-2-(2H-1,2,3-triazol-2-yl)phenyl]carbonyl}piperidin-3-yl]oxy}pyridine-4-carbonitrile] | 9 nM | 215 nM | 0.2 nM |
| Cc1c(C#N)ccnc1O[C@@H]1CC[C@@H](C)N(C(=O)c2ccccc2-c2nccs2)C1 [Example 44, 3-methyl-2-{[(3R,6R)-6-methyl-1-{[2-(1,3-thiazol-2-yl)phenyl]carbonyl}piperidin-3-yl]oxy}pyridine-4-carbonitrile] | 8 nM |  | 0.1 nM |
| COc1ccc(C(=O)N2C[C@H](Oc3nccc(C#N)c3C)CC[C@H]2C)c(-c2ccncc2)n1 [Example 48, 2-({(3R,6R)-1-[(6-methoxy-2,4′-bipyridin-3-yl)carbonyl]-6-methylpiperidin-3-yl}oxy)-3-methylpyridine-4-carbonitrile] | 65 nM |  | 8.9 nM |
| Cc1c(C#N)ccnc1O[C@@H]1CC[C@@H](C)N(C(=O)c2nscc2-c2ccccc2)C1 [Example 50] | 22 nM |  | 2 nM |
| Cc1c(C#N)ccnc1O[C@@H]1CC[C@@H](C)N(C(=O)c2nscc2-n2nccn2)C1 [Example 55, 3-methyl-2-{[(3R,6R)-6-methyl-1-{[4-(2H-1,2,3-triazol-2-yl)isothiazol-3-yl]carbonyl}piperidin-3-yl]oxy}pyridine-4-carbonitrile] | 81 nM |  | 7.4 nM |
| Cc1c(C#N)ccnc1O[C@@H]1CC[C@@H](C)N(C(=O)c2ccccc2OC(F)(F)F)C1 [Example 62, 3-methyl-2-{[(3R,6R)-6-methyl-1-{[2-(trifluoromethoxy)phenyl]carbonyl}piperidin-3-yl]oxy}pyridine-4-carbonitrile] | 16 nM |  | 0.8 nM |
| Cc1c(C#N)ccnc1O[C@@H]1CC[C@@H](C)N(C(=O)C2=C(c3ccccn3)CCC2)C1 [Example 63, 3-methyl-2-({(3R,6R)-6-methyl-1-[(2-pyridin-2-ylcyclopent-1-en-1-yl)carbonyl]piperidin-3-yl}oxy)pyridine-4-carbonitrile] | 59 nM |  | 4 nM |
| COc1ccc(C(=O)N2C[C@H](Oc3nccc(C#N)c3C)CC[C@H]2C)c(C2CCC2)n1 [Example 66] | 77 nM |  | 1.4 nM |
| Cc1c(C#N)ccnc1O[C@@H]1CC[C@@H](C)N(C(=O)c2cc(F)ccc2-n2nccn2)C1 [Example 69, 2-{[(3R,6R)-1-{[5-fluoro-2-(2H-1,2,3-triazol-2-yl)phenyl]carbonyl}-6-methylpiperidin-3-yl]oxy}-3-methylpyridine-4-carbonitrile] | 11 nM |  | 0.6 nM |
| COc1ccc(C(=O)N2C[C@H](Oc3nccc(C#N)c3C)CC[C@H]2C)c(-c2cnn(C)c2)n1 [Example 80, 2-{[(3R,6R)-1-{[6-methoxy-2-(1-methyl-1H-pyrazol-4-yl)pyridin-3-yl]carbonyl}-6-methylpiperidin-3-yl]oxy}-3-methylpyridine-4-carbonitrile] | 171 nM | 10000 nM |  |
| CSc1ccc(C(=O)N2C[C@H](Oc3nccc(C#N)c3C)CC[C@H]2C)c(-n2nccn2)n1 [Example 86, 3-methyl-2-{[(3R,6R)-6-methyl-1-{[6-(methylsulfanyl)-2-(2H-1,2,3-triazol-2-yl)pyridin-3-yl]carbonyl}-piperidin-3-yl]oxy}pyridine-4-carbonitrile] | 126 nM |  | 5.1 nM |
| CCc1c(C#N)ccnc1O[C@@H]1CC[C@@H](C)N(C(=O)c2ccccc2-n2nccn2)C1 [Example 93, 3-ethyl-2-{[(3R,6R)-6-methyl-1-{[2-(2H-1,2,3-triazol-2-yl)phenyl]carbonyl}piperidin-3-yl]oxy}pyridine-4-carbonitrile] | 8 nM |  | 0.1 nM |
| COc1c(C#N)ccnc1O[C@@H]1CC[C@@H](C)N(C(=O)c2ccc(F)cc2-n2nccn2)C1 [Example 98, 2-{[(3R,6R)-1-{[4-fluoro-2-(2H-1,2,3-triazol-2-yl)phenyl]carbonyl}-6-methylpiperidin-3-yl]oxy}-3-methoxypyridine-4-carbonitrile] | 19 nM |  | 0.3 nM |
| COc1c(C#N)ccnc1O[C@@H]1CC[C@@H](C)N(C(=O)c2ccsc2-n2nccn2)C1 [Example 106, 3-methoxy-2-{[(3R,6R)-6-methyl-1-{[2-(2H-1,2,3-triazol-2-yl)thiophen-3-yl]carbonyl}piperidin-3-yl]oxy}pyridine-4-carbonitrile] | 8 nM | 1960 nM |  |
| COc1c(C#N)ccnc1O[C@@H]1CC[C@@H](C)N(C(=O)c2ccsc2-c2ncccn2)C1 [Example 108, 3-methoxy-2-({(3R,6R)-6-methyl-1-[(2-pyrimidin-2-ylthiophen-3-yl)carbonyl]piperidin-3-yl}oxy)pyridine-4-carbonitrile] | 14 nM | 713 nM |  |
| COc1ccc(C(=O)N2C[C@H](Oc3nccc(C#N)c3OC)CC[C@H]2C)c(-c2ncccn2)n1 [Example 113, 3-methoxy-2-({(3R,6R)-1-[(6-methoxy-2-pyrimidin-2-ylpyridin-3-yl)carbonyl]-6-methylpiperidin-3-yl}oxy)pyridine-4-carbonitrile] | 108 nM | 10000 nM |  |
